Test results published in publication PMC12634411, “Phase Ib study of berzosertib, carboplatin, gemcitabine, and pembrolizumab in patients with squamous nonsmall lung cancer (ETCTN 10313)” (The Oncologist, 2025).
Where “and” joins values, the source holds several entries; their conditions need not be identical. Equal values may be shown once. One block for each compound: values may come before it.

Legend:
[1] = test system: newly diagnosed advanced squamous NSCLC; test: Antitumor activity (RECIST 1.1), PFS, OS, ORR; type: in vivo, human; conditions: gemcitabine, pembrolizumab
Description: (§1) Primary endpoint was the recommended phase II dose (RP2D). Antitumor activity and pharmacokinetics were secondary endpoints. Results Twelve patients were enrolled and treated. […] Five of eleven evaluable patients (46%) experienced partial response. […] Clinicaltrials.gov Identifier: NCT04216316.
(§2) Antitumor activity and pharmacokinetics were secondary endpoints.

[2] = test system: p-Chk1 (Chk1, a primary downstream target of ATR); conditions: reported value, no reference given; cited from earlier work
[3] = test system: patients with advanced solid tumors; set-up: method as in PMID 32568634; conditions: berzosertib 90-240 mg/m^2 and carboplatin AUC 4-5, 23 patients; cited from earlier work
[4] = test system: advanced urothelial carcinoma; set-up: method as in PMID 34436521; conditions: gemcitabine and cisplatin plus berzosertib, phase II; cited from earlier work
[5] = Berzosertib plasma pharmacokinetics, phase Ib trial; conditions: for Cmax: human, plasma, iv, 135 mg/m2, Cmax, geometric mean (SD)
Description: Due to the limited sampling, the most reliable PK parameter assessed was Cmax.

[6] = test system: patients with newly diagnosed advanced squamous NSCLC; test: Phase Ib safety and tolerability: dose-limiting toxicity, treatment-related adverse events, RP2D; type: in vivo, human; conditions: four-drug combination, carboplatin Day 1 of 3-week cycle
Description: as §1, §2
Twelve patients were enrolled and treated in phase Ib. […] The former patient passed away at home after having received cycle 1 Day 9 of therapy and causality was based on clinical history. While this event is not typical of the components of this regimen, we conservatively determined the event to be at least possible related to the platinum backbone of therapy and deemed this a DLT. […] Most common treatment-related adverse events (TRAEs) were anemia (83%), neutropenia (83%), leukopenia (83%), thrombocytopenia (58%), ALT increase (50%), lymphopenia (50%), and nausea (50%).

[7] = test system: ATM-deficient NSCLC tumors; set-up: method as in PMID 26517239; conditions: combination of ceralasertib (AZD6738) and cisplatin, xenograft models; cited from earlier work
[8] = Gemcitabine (dFdC) and metabolite (dFdU) plasma pharmacokinetics, phase Ib trial; conditions: geometric mean (SD)
Description: Primary endpoint was the recommended phase II dose (RP2D). Antitumor activity and pharmacokinetics were secondary endpoints. […] Clinicaltrials.gov Identifier: NCT04216316.
as §2

- Cmax/Dose ([5]; Dose level 1, 135 mg/m^2, N = 6, Day 2 of cycle 1, geometric mean (SD)): 5.18 (1.34) µg/L/mg/m^2
- Cmax/Dose ([5]; Dose level −1, 135 mg/m^2, N = 6, Day 2 of cycle 1, geometric mean (SD)): 4.74 (1.31) µg/L/mg/m^2
- Cmax/Dose ([5]; Total N = 12, Day 2 of cycle 1, geometric mean (SD)): 4.99 (1.31) µg/L/mg/m^2
- Cmax ([5]; Dose level 1, 135 mg/m^2 IV, N = 6, Day 2 of cycle 1, plasma): 700 ng/mL
- Cmax ([5]; Dose level −1, 135 mg/m^2 IV, N = 6, Day 2 of cycle 1, plasma): 640 ng/mL
- Cmax ([5]; Total N = 12, 135 mg/m^2 IV, Day 2 of cycle 1, plasma): 669 ng/mL
SMILES: CNCc1ccc(-c2cc(-c3nc(-c4ccc(S(=O)(=O)C(C)C)cc4)cnc3N)on2)cc1 [Berzosertib]
- ORR (partial response) ([1]; 5 of 11 evaluable patients, 95% CI: 16.7%, 76.6%, RECIST 1.1, combination with carboplatin): 46% and 45.5%
- stable disease ([1]; 6 of 11 evaluable patients, 95 CI: 23.4%, 83.3%, combination with carboplatin): 54.5%
- median PFS ([1]; 12 patients, 95% CI: 3, 13, median follow-up 17 months, combination with carboplatin): 9 months
- median OS ([1]; 12 patients, 95% CI: 3, not reached, median follow-up 17 months, combination with carboplatin): 15 months
- human equivalent p-Chk1 IC50 [2]: approximately 110 ng/mL
- events of grade ≥3 nausea and vomiting [3]: no events
- grade ≥3 neutropenia [3]: 22%
- survival with the addition of berzosertib vs gemcitabine and cisplatin alone [4]: inferior survival

SMILES: N.N.O=C([O-])C1(C(=O)[O-])CCC1.[Pt+2] [carboplatin]
- recommended phase II dose (RP2D) [6]: 4 AUC

SMILES: C[C@@H]1COCCN1c1cc(C2([S@](C)(=N)=O)CC2)nc(-c2cc[nH]c3nccc2-3)n1 [ceralasertib]
- effect on ATM-deficient NSCLC tumors [7]: near-complete resolution

- dFdC Cmax ([8]; Dose level 1, gemcitabine 800 mg/m^2, N = 6, plasma): 9.29 (1.51) mg/L
- dFdC Cmax ([8]; Dose level −1, gemcitabine 800 mg/m^2, N = 6, plasma): 11.2 (1.12) mg/L
- dFdC Cmax ([8]; Total N = 12, gemcitabine 800 mg/m^2, plasma): 10.2 (1.35) mg/L
SMILES: Nc1ccn([C@@H]2O[C@H](CO)[C@@H](O)C2(F)F)c(=O)n1 [gemcitabine]
